pEC50: −log10 of the molar value.
Experiments:
[1] = biological target: T1, medaka Esr1 (mEsr1) (Oryzias latipes, UniProt P50241); experiment: Medaka Esr1 reporter gene assay, antagonist assay; type: cell-based, Japanese medaka (Oryzias latipes); settings: E2 spiked at 0.2 nM (A); MAC = 1.0 × 10^−5 M
T1 sequence (P50241 1-620): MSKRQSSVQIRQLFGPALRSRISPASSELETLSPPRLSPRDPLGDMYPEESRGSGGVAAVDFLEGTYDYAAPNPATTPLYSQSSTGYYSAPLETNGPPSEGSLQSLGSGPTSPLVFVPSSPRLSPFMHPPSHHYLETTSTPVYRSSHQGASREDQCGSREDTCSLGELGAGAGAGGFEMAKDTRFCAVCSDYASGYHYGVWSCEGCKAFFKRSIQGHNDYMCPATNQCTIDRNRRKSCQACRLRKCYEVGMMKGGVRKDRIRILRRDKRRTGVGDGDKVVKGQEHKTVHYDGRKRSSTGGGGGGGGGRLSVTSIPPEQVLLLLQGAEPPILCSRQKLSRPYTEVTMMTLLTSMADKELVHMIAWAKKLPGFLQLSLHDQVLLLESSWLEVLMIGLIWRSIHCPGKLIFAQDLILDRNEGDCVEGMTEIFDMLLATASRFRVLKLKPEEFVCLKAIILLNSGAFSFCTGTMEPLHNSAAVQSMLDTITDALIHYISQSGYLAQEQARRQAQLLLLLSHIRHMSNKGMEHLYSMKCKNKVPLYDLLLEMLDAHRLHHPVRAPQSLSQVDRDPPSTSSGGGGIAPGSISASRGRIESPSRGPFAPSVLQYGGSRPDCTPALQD

[2] = biological target: T2, medaka ARβ (mArβ) (Oryzias latipes, UniProt D1MV73); experiment: Medaka ARβ reporter gene assay, agonist assay; type: cell-based, Japanese medaka (Oryzias latipes); settings: MAC = 1.0 × 10^−5 M
T2 sequence (D1MV73 1-744): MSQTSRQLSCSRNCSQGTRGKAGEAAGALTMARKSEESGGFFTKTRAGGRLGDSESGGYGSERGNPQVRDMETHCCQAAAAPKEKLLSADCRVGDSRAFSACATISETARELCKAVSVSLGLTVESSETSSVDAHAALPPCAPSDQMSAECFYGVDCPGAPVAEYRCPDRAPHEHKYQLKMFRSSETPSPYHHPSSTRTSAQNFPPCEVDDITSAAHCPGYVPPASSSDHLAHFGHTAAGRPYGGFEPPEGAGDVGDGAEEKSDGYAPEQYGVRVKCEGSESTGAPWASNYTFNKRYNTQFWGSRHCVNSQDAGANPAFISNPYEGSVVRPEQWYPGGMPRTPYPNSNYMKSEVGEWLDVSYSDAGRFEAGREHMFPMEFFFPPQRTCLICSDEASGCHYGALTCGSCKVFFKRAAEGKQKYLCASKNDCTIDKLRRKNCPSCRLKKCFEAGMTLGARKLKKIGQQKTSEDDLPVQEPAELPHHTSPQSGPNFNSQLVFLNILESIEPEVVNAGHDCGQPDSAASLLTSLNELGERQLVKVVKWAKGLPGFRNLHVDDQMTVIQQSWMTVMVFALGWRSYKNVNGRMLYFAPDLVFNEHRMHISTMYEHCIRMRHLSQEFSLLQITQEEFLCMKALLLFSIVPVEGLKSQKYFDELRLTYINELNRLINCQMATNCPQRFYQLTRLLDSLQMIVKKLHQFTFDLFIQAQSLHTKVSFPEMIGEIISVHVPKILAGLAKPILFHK

[3] = test system: Japanese medaka (Oryzias latipes); experiment: Fish Short‐Term Reproduction Assay; type: in vivo; settings: for GSI Female / GSI Male / HSI Female / HSI Male / Length Female / Length Male / Weight Female / Weight Male: completion of exposure
[4] = biological target: T2, medaka ARβ (mArβ); experiment: Medaka ARβ reporter gene assay, antagonist assay; type: cell-based, Japanese medaka (Oryzias latipes); settings: 11‐KT spiked at 50 nM (D); MAC = 1.0 × 10^−5 M
[5] = biological target: T1, medaka Esr1 (mEsr1); experiment: cell-based; set-up: species or system Japanese medaka (Oryzias latipes)
[6] = 2.94 mg/L measured, 21 d, sig. ↑ vs control
[7] = 2.94 mg/L measured, 21 d, sig. ↓ vs control
[8] = measured concentration 0.311 mg/L
[9] = measured concentration 0.926 mg/L
[10] = measured concentration 2.94 mg/L

CCCOC(=O)c1ccc(O)cc1 [PPB, 4‐Hydroxybenzoate propyl]
Antagonistic activity [1]: NE (MAC = 1.0 × 10^−5 M)^(A) | Agonistic activity [2]: NE (MAC = 1.0 × 10^−5 M) | Fertility rate ([3]; 0.311 mg/L measured, 21 d): 93 ± 3.1% | Hepatic VTG, female ([3]; 0.311 mg/L measured, 21 d): 1,190 ± 238 ng/mg‐liver | Mortality ([3]; 0.311 mg/L measured, 21 d): 0.0% | Mortality, number of dead fish ([3]; 0.311 mg/L measured, 21 d): 0 | Number of fertilized eggs (per female per day) ([3]; 0.311 mg/L measured, 21 d): 26 ± 0.8 | Number of total eggs (per female per day) ([3]; 0.311 mg/L measured, 21 d): 28 ± 1.6 | SSC female (joint plates with papillary processes) ([3]; 0.311 mg/L measured, 21 d): 0 ± 0 | Hepatic VTG, male ([3]; 0.311 mg/L measured, 21 d, sig. ↑ vs control): 23.7 ± 9.0 ng/mg‐liver | Fertility rate ([3]; 0.926 mg/L measured, 21 d): 94 ± 3.7% | Hepatic VTG, female ([3]; 0.926 mg/L measured, 21 d): 1,590 ± 271 ng/mg‐liver | Mortality ([3]; 0.926 mg/L measured, 21 d): 0.0% | Mortality, number of dead fish ([3]; 0.926 mg/L measured, 21 d): 0 | Number of total eggs (per female per day) ([3]; 0.926 mg/L measured, 21 d): 23 ± 2.0 | SSC female (joint plates with papillary processes) ([3]; 0.926 mg/L measured, 21 d): 0 ± 0 | Hepatic VTG, male ([3]; 0.926 mg/L measured, 21 d, sig. ↑ vs control): 42.2 ± 36.8 ng/mg‐liver | Number of fertilized eggs (per female per day) ([3]; 0.926 mg/L measured, 21 d, sig. ↓ vs control): 22 ± 1.6 | Mortality ([3]; 2.94 mg/L measured, 21 d): 0.0% | Mortality, number of dead fish ([3]; 2.94 mg/L measured, 21 d): 0 | SSC female (joint plates with papillary processes) ([3]; 2.94 mg/L measured, 21 d): 0 ± 0 | Hepatic VTG, female [3, 6]: 3,540 ± 1,080 ng/mg‐liver | Hepatic VTG, male [3, 6]: 4,170 ± 513 ng/mg‐liver | Fertility rate [3, 7]: 41 ± 23% | Number of total eggs (per female per day) [3, 7]: 10 ± 4.7 | Change of hepatic VTG levels in females (in words) ([3]; 21 d): significant increase | Fecundity, number of total eggs (in words) ([3]; 21 d): statistically significant decrease | LOEC, elevated hepatic VTG in males ([3]; 21 d): 0.311 mg/L | LOECREPRO ([3]; LOEC on reproduction (fecundity and/or fertility)): 926 µg/L | minimal effective concentration ([3]; Oryzias latipes, 504 h, read-out: LOECmVTG): 0.311 µg/mL | LOECREPRO (reduction in fecundity or fertility) ([3]; concentrations without overt toxicity): 926 µg/L | LOECTOX ([3]; lowest observed effect concentration on mortality): ND (>2,940) μg/L | GSI Female [3, 8]: 10.0 ± 0.2% | GSI Male [3, 8]: 0.74 ± 0.14% | HSI Female [3, 8]: 5.4 ± 0.75% | HSI Male [3, 8]: 2.7 ± 0.98% | Length Female [3, 8]: 36.1 ± 0.2 mm | Length Male [3, 8]: 36.4 ± 1.3 mm | Weight Female [3, 8]: 525 ± 27 mg | Weight Male [3, 8]: 525 ± 13 mg | GSI Female [3, 9]: 9.9 ± 1.1% | GSI Male [3, 9]: 0.78 ± 0.05% | HSI Female [3, 9]: 5.1 ± 0.20% | HSI Male [3, 9]: 2.7 ± 0.23% | Length Female [3, 9]: 36.8 ± 0.8 mm | Length Male [3, 9]: 37.1 ± 1.7 mm | Weight Female [3, 9]: 539 ± 21 mg | Weight Male [3, 9]: 515 ± 49 mg | GSI Female [3, 10]: 10.0 ± 1.1% | GSI Male [3, 10]: 0.81 ± 0.21% | HSI Female [3, 10]: 4.3 ± 0.77% | HSI Male [3, 10]: 2.3 ± 0.14% | Length Female [3, 10]: 36.5 ± 1.5 mm | Length Male [3, 10]: 36.5 ± 0.9 mm | Weight Female [3, 10]: 549 ± 83 mg | Weight Male [3, 10]: 490 ± 26 mg | Antagonistic activity [4]: NE (MAC = 1.0 × 10^−5 M)^(D) | pEC50 [5]: 5.15 | In vitro positive: Esr ([5]; mode of action in which EC50 or PC10 was obtained in RGA): Esr

From publication PMC9297976 (Journal of Applied Toxicology, 2021)
